Assay results as given in US20250020635A1, “ASSAY METHODS AND USES THEREOF FOR SCREENING ALZHEIMER'S DISEASE TREATMENT COMPOUNDS” (priority 2023, published 2025).
Entries after “also recorded” stand apart in the source; their conditions may differ. Where two headings read alike, the source gives them in different places.

Columns and labels:
HMC3 cells = assay: Microglial phagocytosis/cell health high-content assay, HMC3 cells; type: cell-based; conditions: for Ave. % Cell Count @ 60 uM HMC3 cells / Ave. % Phagocytosis @ 60 uM HMC3 cells: 48 hrs, compared to control; for IC50: read-out: inhibition of phagocytosis IC50; for EC50: read-out: stimulation of phagocytosis EC50
Description: (§1) The assay introduced here is a simplified cellular imaging assay without any fixation and washing steps, while producing multiparameter measurements with high capacity using a 384-well plate format. The assay procedures include plating cells on day 1, incubating cell plates overnight before treating cells on day 2, adding pHrodo™-myelin/membrane debris to cell plates on day 3, and 20 hr later, staining cell nuclei with Hoechst-33342 for 30 min before performing high-content imaging on day 4. Three selected parameters are measured from cells: 1) mean total fluorescence intensity per cell of pHrodo™-myelin/membrane debris in phagocytosis vesicles to quantify phagocytosis; 2) cell counts per well to quantify treatment effects on proliferation and cell death; and 3) average nuclear intensity to quantify treatment-induced nuclear changes such as in apoptosis. The assay has been used on HMC3 cells (an immortalized human microglial cell line), BV2 cells (an immortalized mouse microglial cell line), and primary microglia isolated from mouse brains. For initial assay attempts, we recommend using HMC3 cells available from the ATCC.
(§2) All collected raw data are normalized to the untreated control with following formula: % of control=100×(X−Min)/(Max−Min). Factors in the formula are: X is raw data from a treated well, Max is an average measurement from pHrodo™-myelin seeded but untreated wells, and Min is an average measurement from no pHrodo™-myelin untreated wells. Normalized data are used for curve fitting that is done with the variable slope (four parameters) using the Prism software.
(§3) To ensure that the measurements reflect the steady state of compound treatment effects and cell health, the assay was set with a total compound treatment time of 48 hr, including pHrodo™-myelin/membrane debris seeding performed 20-24 hr after compound addition. […] Among many available quantitative measurements from the image analysis, we selected three parameters for the assay:
(§4) 1) The mean total intensity of phagocytosis vesicles/cell—to measure phagocytosis. There are multiple parameters generated from the image analysis, including phagocytosis vesicle area, number, and various fluorescence intensity measurements. Comparing these parameters, the total fluorescence intensity of vesicles/cell is the most sensitive one and was chosen for quantifying phagocytosis.
(§5) 2) The total cell counts—to measure overall cell viability, which is affected by proliferation and cell death. We chose to take 4 images/well (with the 10× objective lens) that cover about 50% of the total area of a well in a 384-well plate to represent cell count of the well.
(§6) 3) The average nuclear intensity—to measure drug-induced apoptosis, with high signal indicating nuclear condescension (a sign of early apoptosis) and low signal indicating DNA degradation (a sign of later apoptosis, when activated caspases digest DNA).
(§7) A phenotypic high-content imaging assay with simultaneous measurements of phagocytosis, cell number, and nuclear intensity was used to assess both cellular pharmacology and cell health. Model cell lines BV2 (immortalized mouse microglia, a gift from Dr. Michelle Block's laboratory at IUSM) and HMC3 (immortalized human microglia, obtained from ATCC, CRL-3304) were used to provide adequate throughput. Cells were cultured in DMEM GlutaMax media (ThermoFisher) containing 10% FBS and Pen-Strep in a 37° C. 5% CO2 incubator, plated in Corning Falcon 384 well Optilux Black and clear bottom plates: 400 cells/45 μl/well (BV2 cells), 600 cells/45 μl/well (HMC3 cells) and 2000 cell/45 μl/well (primary cells), and treated with 10× serially diluted compounds (60 μM-3 nM) for 48 hrs at 37° C. […]

PLCγ2-HiBit = target: T1, PLCγ2-HiBit (Homo sapiens, UniProt P16885); assay: Cellular thermal shift assay (SplitLuc CETSA), PLCγ2-HiBit in HMC3 cells; type: cell-based; conditions: for PLCγ2-HiBit %, percent luminescence at highest dose compared to control (DMSO): 100 μM
T1 construct: expressed in transfected cells; host or cells: HMC3 cells
T1 sequence (P16885 1-1265): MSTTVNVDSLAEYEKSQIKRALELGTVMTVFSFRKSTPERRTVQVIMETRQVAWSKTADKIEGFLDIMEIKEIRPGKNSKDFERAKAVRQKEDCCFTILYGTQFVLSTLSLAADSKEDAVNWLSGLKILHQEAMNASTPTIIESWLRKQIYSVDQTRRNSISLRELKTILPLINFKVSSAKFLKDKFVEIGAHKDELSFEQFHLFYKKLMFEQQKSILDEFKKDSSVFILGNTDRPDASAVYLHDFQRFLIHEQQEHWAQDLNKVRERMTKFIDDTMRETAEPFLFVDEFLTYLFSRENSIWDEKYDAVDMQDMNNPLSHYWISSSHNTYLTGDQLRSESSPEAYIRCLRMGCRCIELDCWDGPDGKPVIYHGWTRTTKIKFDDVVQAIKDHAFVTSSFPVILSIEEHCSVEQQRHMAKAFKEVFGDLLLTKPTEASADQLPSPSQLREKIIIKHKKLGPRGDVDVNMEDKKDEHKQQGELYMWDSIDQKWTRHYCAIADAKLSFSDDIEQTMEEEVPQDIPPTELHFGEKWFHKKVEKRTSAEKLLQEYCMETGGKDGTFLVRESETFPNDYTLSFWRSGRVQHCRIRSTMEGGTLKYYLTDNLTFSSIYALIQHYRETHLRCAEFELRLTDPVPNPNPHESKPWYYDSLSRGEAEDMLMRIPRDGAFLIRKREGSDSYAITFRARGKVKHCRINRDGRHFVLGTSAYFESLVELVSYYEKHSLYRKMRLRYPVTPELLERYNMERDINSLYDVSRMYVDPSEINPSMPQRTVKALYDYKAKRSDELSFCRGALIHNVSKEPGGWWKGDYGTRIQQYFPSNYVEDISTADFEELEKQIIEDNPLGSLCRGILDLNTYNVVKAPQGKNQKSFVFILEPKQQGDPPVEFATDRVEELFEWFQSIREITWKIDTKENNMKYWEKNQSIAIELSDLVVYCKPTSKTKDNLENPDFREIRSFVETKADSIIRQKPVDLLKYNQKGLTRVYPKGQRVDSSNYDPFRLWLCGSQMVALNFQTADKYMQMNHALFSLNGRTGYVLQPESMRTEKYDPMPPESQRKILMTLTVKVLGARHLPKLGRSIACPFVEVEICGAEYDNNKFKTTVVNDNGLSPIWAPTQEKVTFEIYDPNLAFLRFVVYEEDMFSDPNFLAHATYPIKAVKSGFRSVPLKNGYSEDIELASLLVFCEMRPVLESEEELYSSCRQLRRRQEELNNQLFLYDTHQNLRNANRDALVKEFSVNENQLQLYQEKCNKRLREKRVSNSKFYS
Excerpt: These compounds have been evaluated using a wide variety of assay classes namely target engagement utilizing cellular thermal shift assay (CETSA),^34 affinity selection mass spectrometry (ASMS),^35 biochemical activity employing the fluorogenic probe XY-69,^36 and cellular activity testing for phagocytosis. Cellular Thermal Shift Assays (CETSA) assess cellular target engagement by quantifying changes in protein thermal stability upon ligand binding to endogenous proteins in intact cells.^34 For SAR studies, a split Nano Luciferase (SplitLuc CETSA) version of the assay was utilized to provide sufficient throughput.^37,38 HMC3 cells were stably transfected with PLCγ2-HiBit to enable protein expression in a physiologically relevant cellular context. The thermal stability of this HiBit-labeled protein in intact cells was measured in the following two formats. In the initial screen, using 96-well plates, cells were treated with FBS analogs at a single concentration (100 μM) at 37° C. for 60 min and then exposed to a 3-minute isothermal heating step at 45.9° C. (experimentally determined Tm of PLCγ2-HiBit). Luminescence detection was then conducted with the Nano-Glo HiBit Lytic detection kit (Promega, Cat. N3040).^38 Compound treatment was performed in triplicate, and raw signals were normalized to the mean of the controls (in the same plate) as % of control. When the difference in compound-treated cells >control mean+3SD, the compound was considered positive and selected for further testing with dose-response CETSA. In the dose response CETSA, cells were treated with decreasing concentrations from 100 μM with 1:3 serial dilutions to generate an 8-point curve. An AC50 was calculated with the % of control data using a four-parameter logistic curve regression model, and the percent luminescence remaining at the highest concentration is also reported for the compounds when the difference from the DMSO control is greater than 3× the standard deviation (SD). Otherwise, an AC50 was not calculated.

BV2 cells = assay: Microglial phagocytosis/cell health high-content assay, BV2 cells; type: cell-based; conditions: for Ave. % Cell Count @ 60 uM BV2 cells / Ave. % Phagocytosis @ 60 uM BV2 cells: 48 hrs, compared to control; for phagocytosis increase against cell count decline: HMC3 and BV2 cells (Table 6, FIGS. 21, 22); for EC50 / IC50: Mus musculus, BV-2; for IC50: read-out: cell count decrease IC50
Description: as §1, §2, §3, §4, §5, §6, §7

HiBit only = assay: Cellular thermal shift assay (CETSA), HiBit only control; type: cell-based, human; conditions: for HiBit only %, percent luminescence at highest dose with HiBit only compared to control (DMSO): 100 μM; for HiBit only % @100 μM: Table 1
[1] = Table 1, CETSA dose response, read-out: AC50
[2] = Table 5, 8-point dose response from 100 μM, HMC3 cells, 45.9° C., read-out: AC50, concentration that induced a half-maximum loss of luminesce compared to control
[3] = Homo sapiens, HMC3, 48 h, HMC3 cells, 48 hours treatment

Compound | Ave. % Cell Count @ 60 uM HMC3 cells (HMC3 cells) | Ave. % Phagocytosis @ 60 uM HMC3 cells (HMC3 cells) | PLCγ2-HiBit %, percent luminescence at highest dose compared to control (DMSO) (PLCγ2-HiBit) | PLCy2-HiBit % @100 (PLCγ2-HiBit; Table 1) | AC50 (PLCγ2-HiBit; [1]) | AC50 (PLCγ2-HiBit; [2]) | Ave. % Cell Count @ 60 uM BV2 cells (BV2 cells) | Ave. % Phagocytosis @ 60 uM BV2 cells (BV2 cells) | phagocytosis increase against cell count decline (BV2 cells) | HiBit only %, percent luminescence at highest dose with HiBit only compared to control (DMSO) (HiBit only) | HiBit only % @100 μM (HiBit only) | IC50 (BV2 cells; BV2 cells, 48 hours treatment) | further results
Cc1cccc(NS(=O)(=O)c2c(C)cc(C)cc2C)c1 [Compound 5] | 78% | 111% | 54% | 54% | > 100 µM | > 100 µM | 45% | 165% | the increase was paired with a sharp cell count decline | 95% | 96% | – | –
O=S(=O)(Nc1cccc(C(F)(F)F)c1)c1ccc(Cl)cc1Cl [Compound 9] | 16% | 281% | 32% | 32% | 71 µM | 71 µM | 9% | 581% | the increase was paired with a sharp cell count decline | 38% | 38% | – | –
Cc1cc(Br)ccc1S(=O)(=O)Nc1cccc(C(F)(F)F)c1 [Compound 10] | 11% | 93% | 17% | 17% | 57 µM | 57 µM | 1% | 434% | the increase was paired with a sharp cell count decline | 40% | 40% | – | –
CC[C@H](Nc1ncnc2[nH]cnc12)c1nc2cccc(F)c2c(=O)n1-c1ccccc1 [Idelalisib, reference compound] | – | – | – | – | – | – | – | – | – | – | – | 22 µM | IC50 (HMC3 cells; HMC3 cells, 48 hours treatment): 0.526 µM; IC50 (HMC3 cells; [3]): ~0.5 µM; effect on phagocytosis (BV2 cells; BV2 cells, 48 hours treatment): did not inhibit phagocytosis in BV2 cells, but increased phagocytosis in parallel with decreasing cell counts and increasing nuclear intensity; EC50 (BV2 cells; BV2 cells, 48 hours treatment, 60 μM the maximal dose, read-out: stimulation of phagocytosis EC50): > 60 µM; EC50 (BV2 cells; BV2 cells, 48 hours treatment, read-out: nuclear intensity increase EC50): 4.14 µM
CN1CCN(CCOc2cc(OC3CCOCC3)c3c(Nc4c(Cl)ccc5c4OCO5)ncnc3c2)CC1 [Saracatinib, reference compound] | – | – | – | – | – | – | – | – | – | – | – | 0.833 µM | concentrations showing cytotoxicity (HMC3 cells; HMC3 cells, 48 hours treatment): > 10 µM; EC50 (HMC3 cells; HMC3 cells, 48 hours treatment): 0.182 µM; EC50 (HMC3 cells; [3]): < 0.2 µM; concentrations showing cell count decreases (BV2 cells; BV2 cells, 48 hours treatment): > 1 µM; EC50 (BV2 cells; BV2 cells, 48 hours treatment, read-out: increased phagocytosis EC50): 0.266 µM
Lipopolysaccharides [LPS, reference compound] | – | – | – | – | – | – | – | – | – | – | – | – | response (phagocytosis, cell count, nuclear intensity) (HMC3 cells; HMC3 cells, 48 hr): did not respond to LPS treatment; changes in nuclear intensity (BV2 cells; BV2 cells, 48 hr): no nuclear intensity changes up to 10 μg/ml LPS; also recorded: no changes in nuclear intensity; inhibition of cell count IC50 (BV2 cells; BV2 cells, 48 hr): 0.122 µg/mL; stimulation of phagocytosis EC50 (BV2 cells; BV2 cells, 48 hr): 0.255 µg/mL
